Measurements taken from ChEMBL document CHEMBL1201862, “PubChem BioAssay data set” (2004).
The source made the active and inactive calls. Rule as the data show it: actives have a measured IC50 and inactives only a lower limit.

Columns and labels:
Assay type in all cases: functional
[1] = molecular target: T1, Caspase-3 (Homo sapiens, UniProt P42574); experiment: SAR Analysis of small molecule inhibitors of Sentrin-specific proteases (SENPs) using a Caspase-3 Selectivity assay. [Related pubchem assays (depositor defined):AID2540, AID2599, AID434973, AID489001]
T1 sequence (P42574 whole entry): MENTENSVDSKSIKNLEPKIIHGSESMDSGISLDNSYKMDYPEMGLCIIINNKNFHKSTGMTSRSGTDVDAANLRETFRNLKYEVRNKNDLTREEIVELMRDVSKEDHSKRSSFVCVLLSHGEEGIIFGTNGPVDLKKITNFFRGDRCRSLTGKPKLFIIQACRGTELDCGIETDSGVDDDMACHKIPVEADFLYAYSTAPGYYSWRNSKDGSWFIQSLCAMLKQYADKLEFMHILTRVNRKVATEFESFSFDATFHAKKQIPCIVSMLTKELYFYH

[2] = molecular target: T2, Sentrin-specific protease 7 (Homo sapiens, UniProt Q9BQF6); experiment: inhibition of human SENP7 cleavage activity – biochemical, luminescence, SAR follow-up (AID 504497)
T2 sequence (Q9BQF6 whole entry): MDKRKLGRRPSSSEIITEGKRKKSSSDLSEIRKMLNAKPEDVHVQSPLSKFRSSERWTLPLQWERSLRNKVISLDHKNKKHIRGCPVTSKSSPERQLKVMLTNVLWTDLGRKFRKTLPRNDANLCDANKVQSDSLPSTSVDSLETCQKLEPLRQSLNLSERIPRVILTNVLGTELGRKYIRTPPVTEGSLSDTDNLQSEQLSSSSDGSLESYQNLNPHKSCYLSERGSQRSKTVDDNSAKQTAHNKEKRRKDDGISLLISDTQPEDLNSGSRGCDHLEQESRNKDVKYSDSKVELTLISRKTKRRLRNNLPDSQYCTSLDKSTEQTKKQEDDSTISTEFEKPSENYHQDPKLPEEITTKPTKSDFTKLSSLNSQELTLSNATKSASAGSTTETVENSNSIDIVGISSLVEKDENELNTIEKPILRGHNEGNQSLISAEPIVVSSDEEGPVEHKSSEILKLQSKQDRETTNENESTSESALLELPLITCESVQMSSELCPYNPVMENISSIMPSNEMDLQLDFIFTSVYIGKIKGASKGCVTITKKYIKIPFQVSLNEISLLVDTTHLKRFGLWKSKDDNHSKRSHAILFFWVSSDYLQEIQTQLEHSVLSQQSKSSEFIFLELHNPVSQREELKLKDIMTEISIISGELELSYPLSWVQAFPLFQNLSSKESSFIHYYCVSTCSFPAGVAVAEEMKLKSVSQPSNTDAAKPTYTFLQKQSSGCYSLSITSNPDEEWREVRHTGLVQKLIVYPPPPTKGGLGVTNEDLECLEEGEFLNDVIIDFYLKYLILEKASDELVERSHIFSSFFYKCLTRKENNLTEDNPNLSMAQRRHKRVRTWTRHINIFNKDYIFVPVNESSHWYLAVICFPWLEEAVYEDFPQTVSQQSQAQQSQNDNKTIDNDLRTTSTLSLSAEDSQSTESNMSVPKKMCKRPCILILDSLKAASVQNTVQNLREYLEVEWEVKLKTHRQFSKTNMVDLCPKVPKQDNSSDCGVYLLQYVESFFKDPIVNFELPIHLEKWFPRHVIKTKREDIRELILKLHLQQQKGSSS

[3] = molecular target: T3, Sentrin-specific protease 6 (Homo sapiens, UniProt Q9GZR1); experiment: SAR Analysis of small molecule inhibitors of Sentrin-specific protease 6 (SENP6) using a Luminescent assay. [Related pubchem assays (depositor defined):AID2582, AID2599]
T3 sequence (Q9GZR1 whole entry): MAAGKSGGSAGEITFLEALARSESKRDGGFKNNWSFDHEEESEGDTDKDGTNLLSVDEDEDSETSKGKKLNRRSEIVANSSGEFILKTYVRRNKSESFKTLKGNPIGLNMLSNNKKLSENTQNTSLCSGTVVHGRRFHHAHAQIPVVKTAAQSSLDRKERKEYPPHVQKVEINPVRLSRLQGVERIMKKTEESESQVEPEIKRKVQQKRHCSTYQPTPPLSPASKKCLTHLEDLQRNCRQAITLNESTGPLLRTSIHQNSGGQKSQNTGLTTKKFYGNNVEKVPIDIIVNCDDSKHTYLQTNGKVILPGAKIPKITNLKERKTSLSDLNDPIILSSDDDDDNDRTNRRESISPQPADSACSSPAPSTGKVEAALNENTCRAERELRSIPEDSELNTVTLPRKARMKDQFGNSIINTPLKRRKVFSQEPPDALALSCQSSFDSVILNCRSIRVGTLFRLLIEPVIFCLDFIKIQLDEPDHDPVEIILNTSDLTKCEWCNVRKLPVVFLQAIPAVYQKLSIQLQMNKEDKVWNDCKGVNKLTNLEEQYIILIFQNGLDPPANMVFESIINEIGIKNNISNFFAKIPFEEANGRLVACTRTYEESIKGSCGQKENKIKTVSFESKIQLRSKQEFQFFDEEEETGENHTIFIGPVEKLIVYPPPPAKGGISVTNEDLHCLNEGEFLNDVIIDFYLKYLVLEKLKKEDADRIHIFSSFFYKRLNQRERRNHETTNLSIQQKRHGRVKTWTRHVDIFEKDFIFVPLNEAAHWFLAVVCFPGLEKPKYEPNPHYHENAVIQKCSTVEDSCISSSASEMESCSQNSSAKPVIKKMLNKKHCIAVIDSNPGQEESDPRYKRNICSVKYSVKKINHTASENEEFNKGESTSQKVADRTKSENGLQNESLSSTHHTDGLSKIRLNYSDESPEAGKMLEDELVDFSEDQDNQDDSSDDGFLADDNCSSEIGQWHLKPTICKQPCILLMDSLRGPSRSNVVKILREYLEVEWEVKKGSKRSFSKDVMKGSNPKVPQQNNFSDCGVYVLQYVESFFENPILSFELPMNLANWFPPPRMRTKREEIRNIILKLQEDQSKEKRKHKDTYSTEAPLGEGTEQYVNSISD

[4] = molecular target: T1, Caspase-3; experiment: inhibition of recombinant caspase-3 activity – biochemical, luminescence, set 2, selectivity assay for SENP protease inhibitor project, SAR follow-up (AID 588599)
[5] = molecular target: T4, Sentrin-specific protease 8 (Homo sapiens, UniProt Q96LD8); experiment: inhibition of human SENP8 cleavage activity – biochemical, luminescence, SAR follow-up (AID 504501)
T4 sequence (Q96LD8 whole entry): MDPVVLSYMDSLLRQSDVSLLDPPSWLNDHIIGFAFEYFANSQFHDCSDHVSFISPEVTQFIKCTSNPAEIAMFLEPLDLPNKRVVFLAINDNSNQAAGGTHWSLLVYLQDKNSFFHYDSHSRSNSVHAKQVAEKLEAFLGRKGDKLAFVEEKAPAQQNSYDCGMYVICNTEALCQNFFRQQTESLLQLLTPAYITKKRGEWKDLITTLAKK

[6] = molecular target: T2, Sentrin-specific protease 7; experiment: inhibition of human SENP7 cleavage activity – biochemical, luminescence, set 2, SAR follow-up (AID 588600)
[7] = molecular target: T3, Sentrin-specific protease 6; experiment: inhibition of human SENP6 catalytic domain – biochemical, luminescence, set 2, SAR follow-up (AID 588598)
[8] = molecular target: T4, Sentrin-specific protease 8; experiment: inhibition of sentrin protease 8 – biochemical, luminescence, set 2, SAR follow-up (AID 588601)

Measured: IC50

COc1cccc(-c2nc(/C=C/c3ccccc3)no2)c1
active: [1] 47 µM | [2] 14 µM | [3] 45 µM | [4] 33.5 µM | [5] 52 µM | [6] 12.2 µM | [7] 13.5 µM | [8] 12.2 µM
